# Laboratory results from patent publication US9833497B2, “Human originated EGF domain proteins and use of the same” (CHENGDU SOURCEBIO LIMITED-LIABILITY COMPANY, priority 2013, dated 2017).
# Assays:
# Format in all cases: cell-based
# Enterobacter cloacae = assay: MIC against Gram-negative bacteria: Enterobacter cloacae
# Outline: (§1)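 Read-out is absence of bacterial growth, with MIC set at the lowest recombinant protein concentration achieving it. Bacteria, pre-grown in LB to McFarland 0.5 and resuspended, were exposed at 5×10^5 CFU/mL to two-fold diluted human EGF domain proteins in triplicate at 37° C, 175 rpm.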
# Pseudomonas aeruginosa = assay: MIC against Gram-negative bacteria: Pseudomonas aeruginosa
# Outline: as §1
# Aeromonas hydrophila = assay: MIC against Gram-negative bacteria: Aeromonas hydrophila
# Outline: as §1
# Klebsiella pneumonia = assay: MIC against Gram-negative bacteria: Klebsiella pneumonia
# Outline: as §1
# Proteus vulgaris = assay: MIC against Gram-negative bacteria: Proteus vulgaris
# Outline: as §1
# E. coli DH5α = assay: Antibacterial activity: MIC and growth curve against E. coli DH5α in 96-well plate; conditions: minimal inhibitory concentration against E. coli DH5α; 96-well plate, 5×10^5 CFU/mL, 37° C., judged after 8 h
# Outline: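 Log-phase bacteria (OD600 ~0.5) resuspended in LB at 5×10^5 CFU/mL, exposed to recombinant protein at 50, 25, 12.5 μg/mL final in triplicate, 37 °C shaking at 175 rpm. OD600 read every 30 min; MIC is lowest concentration showing no growth.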
# Citrobacter diversus = assay: MIC against Gram-negative bacteria: Citrobacter diversus
# Outline: as §1
# Proteus mirabilis = assay: MIC against Gram-negative bacteria: Proteus mirabilis
# Outline: as §1
# Moraxella catarrhalis = assay: MIC against Gram-negative bacteria: Moraxella catarrhalis
# Outline: as §1
# Serratia marcescens = assay: MIC against Gram-negative bacteria: Serratia marcescens
# Outline: as §1
# E. coli BL21 = assay: MIC against Gram-negative bacteria: E. coli BL21
# Outline: as §1
# [1] = E. cloacae, 10 h cultivation at 37° C., 5×10^5 CFU/mL
# [2] = P. aeruginosa, 10 h cultivation at 37° C., 5×10^5 CFU/mL
# [3] = A. hydrophila, 10 h cultivation at 37° C., 5×10^5 CFU/mL
# [4] = K. pneumonia, 10 h cultivation at 37° C., 5×10^5 CFU/mL
# [5] = P. vulgaris, 10 h cultivation at 37° C., 5×10^5 CFU/mL
# [6] = C. diversus, 10 h cultivation at 37° C., 5×10^5 CFU/mL
# [7] = P. mirabilis, 10 h cultivation at 37° C., 5×10^5 CFU/mL
# [8] = M. catarrhalis, 10 h cultivation at 37° C., 5×10^5 CFU/mL
# [9] = S. marcescens, 10 h cultivation at 37° C., 5×10^5 CFU/mL
# [10] = E. coli BL21, 10 h cultivation at 37° C., 5×10^5 CFU/mL
# [11] = 10 h cultivation at 37° C., 5×10^5 CFU/mL, two-fold serial dilution
# [12] = 96-well plate, 5×10^5 CFU/mL, 37° C., 10 h
substance,measurement,setting,value
PRT774 (LTLRCDYYGCNQTADDCLNGLACDCKSDLQRPNPQSPFCV; listed as Homo sapiens),MIC (μg/mL) E. cloacae,Enterobacter cloacae; [1],12.5 µg/mL
same,MIC (μg/mL) P. aeruginosa,Pseudomonas aeruginosa; [2],12.5 µg/mL
same,MIC (μg/mL) A. hydrophila,Aeromonas hydrophila; [3],25 µg/mL
same,MIC (μg/mL) K. pneumonia,Klebsiella pneumonia; [4],25 µg/mL
same,MIC (μg/mL) P. vulgaris,Proteus vulgaris; [5],12.5 µg/mL
same,MIC,E. coli DH5α,50 µg/mL
same,MIC (μg/mL) C. diversus,Citrobacter diversus; [6],12.5 µg/mL
same,MIC (μg/mL) P. mirabilis,Proteus mirabilis; [7],12.5 µg/mL
same,MIC (μg/mL) M. catarrhalis,Moraxella catarrhalis; [8],12.5 µg/mL
same,MIC (μg/mL) S. marcescens,Serratia marcescens; [9],50 µg/mL
same,MIC (μg/mL) E. coli BL21,E. coli BL21; [10],12.5 µg/mL
PRT766 (GKDQCAEGGHGCQHQCVNAWAMFHCTCNPGYKLAADNKSCL; listed as Homo sapiens),MIC (μg/mL) E. cloacae,Enterobacter cloacae; [1],50 µg/mL
same,MIC (μg/mL) P. aeruginosa,Pseudomonas aeruginosa; [2],25 µg/mL
same,MIC (μg/mL) A. hydrophila,Aeromonas hydrophila; [3],25 µg/mL
same,MIC (μg/mL) K. pneumonia,Klebsiella pneumonia; [4],12.5 µg/mL
same,MIC (μg/mL) P. vulgaris,Proteus vulgaris; [5],25 µg/mL
same,MIC,E. coli DH5α,25 µg/mL
same,MIC (μg/mL) C. diversus,Citrobacter diversus; [6],12.5 µg/mL
same,MIC (μg/mL) P. mirabilis,Proteus mirabilis; [7],50 µg/mL
same,MIC (μg/mL) M. catarrhalis,Moraxella catarrhalis; [8],25 µg/mL
same,MIC (μg/mL) S. marcescens,Serratia marcescens; [9],12.5 µg/mL
same,MIC (μg/mL) E. coli BL21,E. coli BL21; [10],50 µg/mL
PRT1033 (LYVPCAPSPCVNGGTCRQTGDFTFECNCLPETVRRGTE; listed as Homo sapiens),MIC,"Enterobacter cloacae; E. cloacae, 10 h cultivation at 37° C.",50 µg/mL
same,MIC,"Pseudomonas aeruginosa; P. aeruginosa, 10 h cultivation at 37° C.",50 µg/mL
same,MIC,"Aeromonas hydrophila; A. hydrophila, 10 h cultivation at 37° C.",12.5 µg/mL
same,MIC,"Klebsiella pneumonia; K. pneumonia, 10 h cultivation at 37° C.",25 µg/mL
same,MIC,"Proteus vulgaris; P. vulgaris, 10 h cultivation at 37° C.",25 µg/mL
same,MIC,E. coli DH5α,50 µg/mL
same,MIC,"Citrobacter diversus; C. diversus, 10 h cultivation at 37° C.",50 µg/mL
same,MIC,"Proteus mirabilis; P. mirabilis, 10 h cultivation at 37° C.",50 µg/mL
same,MIC,"Moraxella catarrhalis; M. catarrhalis, 10 h cultivation at 37° C.",100 µg/mL
same,MIC,"Serratia marcescens; S. marcescens, 10 h cultivation at 37° C.",50 µg/mL
same,MIC,"E. coli BL21; E. coli BL21, 10 h cultivation at 37° C.",12.5 µg/mL
PRT1138 (EINECDSDPCMNGGLCHESTIPGQFVCLCPPLYTGQFCH; listed as Homo sapiens),MIC E. cloacae,Enterobacter cloacae; [11],25 µg/mL
same,MIC P. aeruginosa,Pseudomonas aeruginosa; [11],25 µg/mL
same,MIC A. hydrophila,Aeromonas hydrophila; [11],25 µg/mL
same,MIC K. pneumonia,Klebsiella pneumonia; [11],12.5 µg/mL
same,MIC P. vulgaris,Proteus vulgaris; [11],25 µg/mL
same,MIC,E. coli DH5α,25 µg/mL
same,MIC C. diversus,Citrobacter diversus; [11],50 µg/mL
same,MIC P. mirabilis,Proteus mirabilis; [11],12.5 µg/mL
same,MIC M. catarrhalis,Moraxella catarrhalis; [11],25 µg/mL
same,MIC S. marcescens,Serratia marcescens; [11],50 µg/mL
same,MIC E. coli BL21,E. coli BL21; [11],50 µg/mL
PRT1424 (CQMFCNQTACPADCDPNTQASCECPEGYILDDGFICT; listed as Homo sapiens),MIC against E. cloacae,"Enterobacter cloacae; Enterobacter cloacae, 5×10^5 CFU/mL, 10 h cultivation at 37° C.",50 µg/mL
same,MIC against P. aeruginosa,"Pseudomonas aeruginosa; Pseudomonas aeruginosa, 5×10^5 CFU/mL, 10 h cultivation at 37° C.",50 µg/mL
same,MIC against A. hydrophila,"Aeromonas hydrophila; Aeromonas hydrophila, 5×10^5 CFU/mL, 10 h cultivation at 37° C.",12.5 µg/mL
same,MIC against K. pneumonia,"Klebsiella pneumonia; Klebsiella pneumonia, 5×10^5 CFU/mL, 10 h cultivation at 37° C.",12.5 µg/mL
same,MIC against P. vulgaris,"Proteus vulgaris; Proteus vulgaris, 5×10^5 CFU/mL, 10 h cultivation at 37° C.",12.5 µg/mL
same,MIC,E. coli DH5α,50 µg/mL
same,MIC against C. diversus,"Citrobacter diversus; Citrobacter diversus, 5×10^5 CFU/mL, 10 h cultivation at 37° C.",25 µg/mL
same,MIC against P. mirabilis,"Proteus mirabilis; Proteus mirabilis, 5×10^5 CFU/mL, 10 h cultivation at 37° C.",25 µg/mL
same,MIC against M. catarrhalis,"Moraxella catarrhalis; Moraxella catarrhalis, 5×10^5 CFU/mL, 10 h cultivation at 37° C.",50 µg/mL
same,MIC against S. marcescens,"Serratia marcescens; Serratia marcescens, 5×10^5 CFU/mL, 10 h cultivation at 37° C.",25 µg/mL
same,MIC against E. coli BL21,"E. coli BL21; E. coli BL21, 5×10^5 CFU/mL, 10 h cultivation at 37° C.",12.5 µg/mL
PRT577 (CACHPSRARGPTCNEFTGQCHCRAGFGGRTCSECQELHWGDPGLQCHA; listed as Homo sapiens),MIC against E. cloacae,Enterobacter cloacae; [12],12.5 µg/mL
same,MIC against P. aeruginosa,Pseudomonas aeruginosa; [12],50 µg/mL
same,MIC against A. hydrophila,Aeromonas hydrophila; [12],25 µg/mL
same,MIC against K. pneumonia,Klebsiella pneumonia; [12],25 µg/mL
same,MIC against P. vulgaris,Proteus vulgaris; [12],12.5 µg/mL
same,MIC,E. coli DH5α,12.5 µg/mL
same,MIC against C. diversus,Citrobacter diversus; [12],50 µg/mL
same,MIC against P. mirabilis,Proteus mirabilis; [12],50 µg/mL
same,MIC against M. catarrhalis,Moraxella catarrhalis; [12],12.5 µg/mL
same,MIC against S. marcescens,Serratia marcescens; [12],50 µg/mL
same,MIC against E. coli BL21,E. coli BL21; [12],25 µg/mL
PRT1239 (TIPICEGPDACQKDEVCVKPGLCRCKPGFFGAHCS; listed as Homo sapiens),MIC against E. cloacae,"Enterobacter cloacae; Enterobacter cloacae, 96-well plate, 5×10^5 CFU/mL, 37° C., 10 h",50 µg/mL
same,MIC against P. aeruginosa,"Pseudomonas aeruginosa; Pseudomonas aeruginosa, 96-well plate, 5×10^5 CFU/mL, 37° C., 10 h",50 µg/mL
same,MIC against A. hydrophila,"Aeromonas hydrophila; Aeromonas hydrophila, 96-well plate, 5×10^5 CFU/mL, 37° C., 10 h",12.5 µg/mL
same,MIC against K. pneumonia,"Klebsiella pneumonia; Klebsiella pneumonia, 96-well plate, 5×10^5 CFU/mL, 37° C., 10 h",12.5 µg/mL
same,MIC against P. vulgaris,"Proteus vulgaris; Proteus vulgaris, 96-well plate, 5×10^5 CFU/mL, 37° C., 10 h",50 µg/mL
same,MIC,E. coli DH5α,25 µg/mL
same,MIC against C. diversus,"Citrobacter diversus; Citrobacter diversus, 96-well plate, 5×10^5 CFU/mL, 37° C., 10 h",50 µg/mL
same,MIC against P. mirabilis,"Proteus mirabilis; Proteus mirabilis, 96-well plate, 5×10^5 CFU/mL, 37° C., 10 h",25 µg/mL
same,MIC against M. catarrhalis,"Moraxella catarrhalis; Moraxella catarrhalis, 96-well plate, 5×10^5 CFU/mL, 37° C., 10 h",12.5 µg/mL
same,MIC against S. marcescens,"Serratia marcescens; Serratia marcescens, 96-well plate, 5×10^5 CFU/mL, 37° C., 10 h",25 µg/mL
same,MIC against E. coli BL21,"E. coli BL21; E. coli BL21, 96-well plate, 5×10^5 CFU/mL, 37° C., 10 h",12.5 µg/mL
